Measured values from US12447193B2, “Compositions and methods for prevention and treatment of infections” (The University of Memphis Research Foundation, priority 2019, dated 2025).

Test system: S. aureus (UAMS-1)
Experiment: Osteomyelitis model in New Zealand White rabbits
Assay type: in vivo
Details: rabbit radius defect, 3 weeks, H&E
Method: This animal model was approved by the IACUC at the University of Arkansas Medical Sciences with all appropriate measures taken to minimize pain and discomfort. This in vivo model is an adaptation of the work by Smeltzer et al J Orthop Res, 1997 15(3):414-21. Female New Zealand White rabbits weighing 2-3 kg were divided into 5 groups (n=6/group) including the following: no treatment control, a hollow PMMA (Orthoset, MicroPort Memphis, TN) cylinder with amikacin and vancomycin (approximately 15 mg/implant), a vancomycin sprinkle of 10 mg, the Ch-PEG paste, and the ChMPEG paste. Rabbits were anesthetized with 1-2 cc of a xylazine/ketamine mixture intramuscularly for a dose range of […] xylazine and 30-40 mg/kg ketamine. Rabbits were maintained on isoflurane administered by nose cone to produce surgical anesthesia and monitored by a veterinary technician. The right forelimb of each rabbit was shaved and prepped using a betadine scrub and rinsed with 70% ethanol. An incision was made on the anterior surface of the right forelimb through the epidermis, musculature, and fascia until the radius was exposed. A 1 cm mid-radial segment was excised from the right radial bone using a miniature saw blade (Exakt, Oklahoma City, OK). […]

CN[C@H](CC(C)C)C(=O)N[C@H]1C(=O)N[C@@H](CC(N)=O)C(=O)N[C@H]2C(=O)N[C@H]3C(=O)N[C@H](C(=O)N[C@H](C(=O)O)c4cc(O)cc(O)c4-c4cc3ccc4O)[C@H](O)c3ccc(c(Cl)c3)Oc3cc2cc(c3O[C@@H]2O[C@H](CO)[C@@H](O)[C@H](O)[C@H]2O[C@H]2C[C@](C)(N)[C@H](O)[C@H](C)O2)Oc2ccc(cc2Cl)[C@H]1O [vancomycin powder, vancomycin]
inflammation in histological sections of bone in the defect: areas of high inflammatory cell presence | tissue growth / fill in the defect (histology): tissue fill within the defect
